Data as given in ChEMBL document CHEMBL4715772, “A facile stereoselective synthesis of dispiro-indeno pyrrolidine/pyrrolothiazole-thiochroman hybrids and evaluation of their antimycobacterial, anticancer and AchE inhibitory activities” (Bioorg Med Chem, 2016).
≈ marks a conversion by molar mass, not a printed value.

How the values were obtained:
[1] = system: MCF7; experiment: Antiproliferative activity against human MCF7 cells assessed as inhibition of cell proliferation at 50 uM incubated for 72 hrs by CellTiter-Glo assay relative to control; assay type: functional; conditions: MCF7, read-out: INH
[2] = Cytotoxicity against African green monkey Vero cells assessed as cell viability after 72 hrs by MTT assay; assay type: cell-based; conditions: chlorocebus sabaeus, read-out: MNCC
[3] = system: MCF7; experiment: Antiproliferative activity against human MCF7 cells assessed as inhibition of cell proliferation incubated for 72 hrs by CellTiter-Glo assay; assay type: functional, cell-based; conditions: MCF7, 72 h
[4] = system: Mycobacterium tuberculosis; experiment: Antimycobacterial activity against Mycobacterium tuberculosis H37Rv assessed as inhibition of bacterial growth by microdilution alamar blue broth assay; assay type: functional, organism-based
[5] = target: Acetylcholinesterase (Homo sapiens, UniProt P22303); experiment: Inhibition of AChE (unknown origin) using acetylthiocholine chloride as substrate preincubated with enzyme for 15 mins followed by substrate addition by Ellman's method
Sequence of Acetylcholinesterase (P22303 whole entry): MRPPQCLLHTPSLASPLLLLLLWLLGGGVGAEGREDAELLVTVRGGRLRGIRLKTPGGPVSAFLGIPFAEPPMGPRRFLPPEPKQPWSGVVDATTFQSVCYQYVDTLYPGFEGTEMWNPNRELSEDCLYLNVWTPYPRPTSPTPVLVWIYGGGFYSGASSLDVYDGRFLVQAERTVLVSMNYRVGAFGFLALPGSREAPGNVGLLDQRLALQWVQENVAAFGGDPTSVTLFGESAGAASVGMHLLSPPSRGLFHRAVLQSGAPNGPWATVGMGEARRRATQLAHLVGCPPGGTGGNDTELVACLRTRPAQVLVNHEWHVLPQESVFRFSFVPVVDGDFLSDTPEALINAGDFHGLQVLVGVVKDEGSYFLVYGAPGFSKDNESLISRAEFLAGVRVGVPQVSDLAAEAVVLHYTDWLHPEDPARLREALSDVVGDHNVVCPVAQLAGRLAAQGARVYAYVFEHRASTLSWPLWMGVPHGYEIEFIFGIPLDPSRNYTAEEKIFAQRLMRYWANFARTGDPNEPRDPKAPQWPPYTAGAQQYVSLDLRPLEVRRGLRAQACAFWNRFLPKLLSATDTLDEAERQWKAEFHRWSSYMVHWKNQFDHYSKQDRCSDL

[6] = system: HT-29; experiment: Antiproliferative activity against human HT-29 cells assessed as inhibition of cell proliferation incubated for 72 hrs by CellTiter-Glo assay; assay type: functional, cell-based; conditions: HT-29, 72 h
[7] = system: Mycobacterium tuberculosis; experiment: Potency index, ratio of cycloserine IC50 to test compound IC50 for antimycobacterial activity against Mycobacterium tuberculosis H37Rv by microdilution alamar blue broth assay; assay type: functional
[8] = system: Mycobacterium tuberculosis; experiment: Potency index, ratio of pyrimethamine IC50 to test compound IC50 for antimycobacterial activity against Mycobacterium tuberculosis H37Rv by microdilution alamar blue broth assay; assay type: functional

Structure (SMILES) | inhibition at 50 µM [1] [%] | MNTC at 72 h [2] [µg/mL] | IC50 [3] [µM] | IC50 [4] [µM] | IC90 [4] [µM] | MIC [4] [µM] | IC50 [5] [µM] | IC50 [6] [µM] | Ratio IC50 [7] | Ratio IC50 [8]
CN1CC(c2ccccc2Br)[C@@]2(CSc3ccccc3C2=O)C12C(=O)c1ccccc1C2=O (single isomer, unassigned) | < 50 | > 6.25 | 92.9 | 18.3 | 36.5 | 50 (≈ 25.9 µg/mL) | 27.1 | 86.8 | – | –
CN1C[C@@H](c2ccc(F)cc2)[C@@]2(CSc3ccccc3C2=O)C12C(=O)c1ccccc1C2=O | < 50 | > 6.25 | 105 | 11.1 | 22 | 50 (≈ 22.9 µg/mL) | 23.3 | 99.6 | – | –
O=C1c2ccccc2C(=O)C12N1CSC[C@@H]1[C@@H](c1ccccc1)[C@@]21CSc2ccccc2C1=O | < 50 | > 6.25 | 93.5 | 16.3 | 25.5 | 100 (≈ 48.4 µg/mL) | 12.9 | 92.2 | – | –
CC(C)c1ccc([C@@H]2[C@H]3CSCN3C3(C(=O)c4ccccc4C3=O)[C@]23CSc2ccccc2C3=O)cc1 | < 50 | > 6.25 | 91.8 | 45 | 76.4 | 100 (≈ 52.6 µg/mL) | 28.3 | 93.4 | – | –
CN1C[C@@H](c2cccc3ccccc23)[C@@]2(CSc3ccccc3C2=O)C12C(=O)c1ccccc1C2=O | < 50 | > 6.25 | 86 | 6.87 | 14.6 | 25 (≈ 12.2 µg/mL) | 2.12 | 97.2 | – | –
CN1C[C@@H](c2cccc(Br)c2)[C@@]2(CSc3ccccc3C2=O)C12C(=O)c1ccccc1C2=O | < 50 | > 6.25 | 110 | 5.81 | 16.1 | 25 (≈ 13 µg/mL) | 19.8 | 108 | – | –
O=C1c2ccccc2C(=O)C12N1CSC[C@@H]1[C@@H](c1ccc(F)cc1)[C@@]21CSc2ccccc2C1=O | < 50 | > 6.25 | 116 | 13.2 | 25.9 | 50 (≈ 25.1 µg/mL) | 19.8 | 95.9 | – | –
COc1cccc2c1C(=O)c1c(O)c3c(c(O)c1C2=O)C[C@@](O)(C(=O)CO)C[C@@H]3O[C@H]1C[C@H](N)[C@H](O)[C@H](C)O1 [DOXORUBICIN] | – | – | – | – | – | – | – | 12.9 | – | –
CC[C@@H](CO)NCCN[C@@H](CC)CO [ETHAMBUTOL] | – | > 6.25 | – | < 1.56 | – | 12.5 (≈ 2.55 µg/mL) | – | – | – | –
CC(C)c1ccc([C@@H]2CN(C)C3(C(=O)c4ccccc4C3=O)[C@]23CSc2ccccc2C3=O)cc1 | < 50 | > 6.25 | 93 | 25.9 | 44.6 | 100 (≈ 48.2 µg/mL) | 19.8 | 98.3 | – | –
O=C1c2ccccc2C(=O)C12N1CSC[C@@H]1[C@@H](c1ccc(Br)cc1)[C@@]21CSc2ccccc2C1=O | < 50 | > 6.25 | 92.9 | 21.9 | 47.9 | 50 (≈ 28.1 µg/mL) | 34.6 | 86.8 | – | –
CN1C[C@@H](c2cccs2)[C@@]2(CSc3ccccc3C2=O)C12C(=O)c1ccccc1C2=O | < 50 | > 6.25 | 123 | 25.9 | 44.6 | 100 (≈ 44.6 µg/mL) | 21.2 | 95.9 | – | –
CN1C[C@@H](c2ccccc2)[C@@]2(CSc3ccccc3C2=O)C12C(=O)c1ccccc1C2=O | < 50 | > 6.25 | 104 | 15.2 | 27.9 | 100 (≈ 44 µg/mL) | 11.1 | 86.7 | – | –
O=C1c2ccccc2C(=O)C12N1CSC[C@@H]1[C@@H](c1cccc3ccccc13)[C@@]21CSc2ccccc2C1=O | < 50 | > 6.25 | 102 | 28.6 | 47.7 | 50 (≈ 26.7 µg/mL) | 16.5 | 93.4 | – | –
NNC(=O)c1ccncc1 [ISONIAZID] | – | > 6.25 | – | – | 0.29 | 0.31 (≈ 0.0425 µg/mL) | – | – | – | –
CN1C[C@@H](c2ccc(Cl)cc2)[C@@]2(CSc3ccccc3C2=O)C12C(=O)c1ccccc1C2=O | < 50 | > 6.25 | 97 | 8.46 | 12.4 | 50 (≈ 23.7 µg/mL) | 22.2 | 94 | – | –
O=C1c2ccccc2C(=O)C12N1CSC[C@@H]1[C@@H](c1cccc(F)c1)[C@@]21CSc2ccccc2C1=O | < 50 | > 6.25 | 116 | 16.4 | 22 | 50 (≈ 25.1 µg/mL) | 12.2 | 91.7 | – | –

Structure (SMILES) | inhibition at 50 µM [1] [%] | MNTC at 72 h [2] [µg/mL] | IC50 [3] [µM] | IC50 [4] [µM] | IC90 [4] [µM] | MIC [4] [µM] | IC50 [5] [µM] | IC50 [6] [µM] | Ratio IC50 [7] | Ratio IC50 [8]
COc1ccc([C@@H]2[C@H]3CSCN3C3(C(=O)c4ccccc4C3=O)[C@]23CSc2ccccc2C3=O)cc1 | < 50 | > 6.25 | 86 | 12.9 | 24.6 | 50 (≈ 25.7 µg/mL) | 1.1 | 97.2 | – | –
CN1C[C@@H](c2ccc(Br)cc2)[C@@]2(CSc3ccccc3C2=O)C12C(=O)c1ccccc1C2=O | < 50 | > 6.25 | 101 | 29.9 | 41.9 | 50 (≈ 25.9 µg/mL) | 28.3 | 88.1 | – | –
CCc1nc(N)nc(N)c1-c1ccc(Cl)cc1 [PYRIMETHAMINE] | – | > 6.25 | – | – | – | 100 (≈ 24.9 µg/mL) | – | – | – | –
N[C@@H]1CONC1=O [CYCLOSERINE] | – | > 6.25 | – | – | – | 25 (≈ 2.55 µg/mL) | – | – | – | –
O=C1c2ccccc2C(=O)C12N1CSC[C@@H]1C(c1ccc(Cl)cc1Cl)[C@@]21CSc2ccccc2C1=O (single isomer, unassigned) | < 50 | > 6.25 | 105 | 2.87 | 4.6 | 6.25 (≈ 3.45 µg/mL) | 19.5 | 101 | 4 | 12
O=C1c2ccccc2C(=O)C12N1CSC[C@@H]1C(c1ccccc1Cl)[C@@]21CSc2ccccc2C1=O (single isomer, unassigned) | < 50 | > 6.25 | 101 | 8.57 | 14.7 | 50 (≈ 25.9 µg/mL) | 33.2 | 88.1 | – | –
O=C1c2ccccc2C(=O)C12N1CSC[C@@H]1[C@@H](c1ccc(Cl)cc1)[C@@]21CSc2ccccc2C1=O | < 50 | > 6.25 | 104 | 7.2 | 15.5 | 50 (≈ 25.9 µg/mL) | 21.3 | 76.7 | – | –
O=C1c2ccccc2C(=O)C12N1CSC[C@@H]1[C@@H](c1ccccc1Br)[C@@]21CSc2ccccc2C1=O | – | > 6.25 | – | – | – | – | – | – | – | –
COc1ccc([C@@H]2CN(C)C3(C(=O)c4ccccc4C3=O)[C@]23CSc2ccccc2C3=O)cc1 | < 50 | > 6.25 | 102 | 18.3 | 36.5 | 50 (≈ 23.5 µg/mL) | 1.16 | 93.4 | – | –
CN1C[C@@H](c2cccc(F)c2)[C@@]2(CSc3ccccc3C2=O)C12C(=O)c1ccccc1C2=O | < 50 | > 6.25 | 108 | 4.28 | 9.86 | 25 (≈ 11.4 µg/mL) | 24.6 | 82.1 | – | –
O=C1c2ccccc2C(=O)C12N1CSC[C@@H]1[C@@H](c1cccc(Br)c1)[C@@]21CSc2ccccc2C1=O | < 50 | > 6.25 | 84.8 | 17.2 | 35.5 | 50 (≈ 28.1 µg/mL) | 38.3 | 79.6 | – | –
O=C1c2ccccc2C(=O)C12N1CSC[C@@H]1[C@@H](c1cccs1)[C@@]21CSc2ccccc2C1=O | < 50 | > 6.25 | 97 | 12.9 | 24.6 | 50 (≈ 24.5 µg/mL) | 19.1 | 94 | – | –
Cc1ccc([C@@H]2[C@H]3CSCN3C3(C(=O)c4ccccc4C3=O)[C@]23CSc2ccccc2C3=O)cc1 | < 50 | > 6.25 | 107 | 28.6 | 47.7 | 50 (≈ 24.9 µg/mL) | 7.11 | 90 | – | –
Cc1ccc([C@@H]2CN(C)C3(C(=O)c4ccccc4C3=O)[C@]23CSc2ccccc2C3=O)cc1 | < 50 | > 6.25 | 105 | 47.2 | 66.5 | 100 (≈ 45.4 µg/mL) | 6.6 | 101 | – | –
CN1CC(c2ccccc2Cl)[C@@]2(CSc3ccccc3C2=O)C12C(=O)c1ccccc1C2=O (single isomer, unassigned) | < 50 | > 6.25 | 86 | 47.2 | 66.5 | 100 (≈ 47.4 µg/mL) | 10.1 | 97.2 | – | –
CN1CC(c2ccc(Cl)cc2Cl)[C@@]2(CSc3ccccc3C2=O)C12C(=O)c1ccccc1C2=O (single isomer, unassigned) | < 50 | > 6.25 | 107 | 1.07 | 1.98 | 6.25 (≈ 3.18 µg/mL) | 24.1 | 90 | 12 | 37
